# Experimental data as given in patent US10287301B2 (Achillion Pharmaceuticals, Inc., priority 2015, dated 2019).
# Where two headings read alike, the source gives them in different places.
# Biological target: Human Factor D (Homo sapiens (Human), UniProt P00746)
# Experiment: Human Factor D Assay
# Assay type: biochemical
# How it was run: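 Factor D (from human serum) 80 nM final + cpd, 5 min RT, 50 mM Tris/1M NaCl pH 7.5; add Z-L-Lys-SBzl 100 μM and DTNB 100 μM final. IC50 by nonlinear fit of rates vs [cpd].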
# [1] = Human Factor D 80 nM, substrate Z-L-Lys-SBzl, read-out: IC50
# [2] = Human Factor D, Table 3, read-out: IC50
# [3] = Table 3, Human Factor D 80 nM, substrate Z-L-Lys-SBzl, read-out: IC50 (Stars)
# Chain of Human Factor D (P00746 26-253): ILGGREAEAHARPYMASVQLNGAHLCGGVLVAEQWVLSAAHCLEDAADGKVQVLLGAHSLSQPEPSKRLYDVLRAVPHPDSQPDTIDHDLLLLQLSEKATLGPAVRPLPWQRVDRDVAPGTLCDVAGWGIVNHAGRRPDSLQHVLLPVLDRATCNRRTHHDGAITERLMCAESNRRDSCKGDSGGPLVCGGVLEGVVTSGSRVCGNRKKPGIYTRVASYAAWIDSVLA
SMILES,IC50 [1] [nM],IC50 [2] [nM],IC50 [3] [nM]
"NCc1ccc(NC(=O)[C@@H]2C[C@@H](F)CN2C(=O)Cn2nc(C(N)=O)c3cc(-c4ccnnc4)ccc32)cc1 [Compound 70, 1-(2-((2S,4R)-2-(4-(aminomethyl)phenylcarbamoyl)-4-fluoropyrrolidin-1-yl)-2-oxoethyl)-5-(pyridazin-4-yl)-1H-indazole-3-carboxamide]",> 10000,,
"CC(=O)c1nn(CC(=O)N2C[C@H]3C[C@H]3[C@H]2C(=O)Nc2nc(Br)ccc2C2CC2)c2ccc(-c3cnc(C)nc3)cc12 [Compound 637, (1R,2S,5S)-3-(2-(3-Acetyl-5-(2-methylpyrimidin-5-yl)-1H-indazol-1-yl)acetyl)-N-(6-bromo-3-cyclopropylpyridin-2-yl)-3-azabicyclo[3.1.0]hexane-2-carboxamide]",,< 1000,
"Cc1cccc(NC(=O)[C@@H]2[C@H]3CC[C@H](C3)N2C(=O)Cn2cc(C(N)=O)c3cc(-c4cnc5n4CCCC5)ccc32)n1 [Compound 698, 1-(2-((1R,3S,4S)-3-(6-Methylpyridin-2-ylcarbamoyl)-2-azabicyclo[2.2.1]heptan-2-yl)-2-oxoethyl)-5-(5,6,7,8-tetrahydroimidazo[1,2-a]pyridin-3-yl)-1H-indole-3-carboxamide]",,> 10000,
"CC(=O)c1nn(CC(=O)N2C[C@H](F)C[C@H]2C(=O)Nc2ccc(F)c(Br)n2)c2ccc(-c3cnc(C)nc3)cc12 [Compound 397, (2S,4R)-1-(2-(3-Acetyl-5-(2-methylpyrimidin-5-yl)-1H-indazol-1-yl)acetyl)-N-(6-bromo-5-fluoropyridin-2-yl)-4-fluoropyrrolidine-2-carboxamide]",,,< 1000
"COc1cc(C)cc2c1OCCC2NC(=O)[C@@H]1C[C@@H](F)CN1C(=O)Cn1cc(C(C)=O)c2cc(-c3ccnnc3)ccc21 (stereo partly drawn) [Compound 123, (2S,4R)-1-(2-(3-acetyl-5-(pyridazin-4-yl)-1H-indol-1-yl)acetyl)-4-fluoro-N-(8-methoxy-6-methylchroman-4-yl)pyrrolidine-2-carboxamide]",> 10000,,
"CC(=O)c1nn(CC(=O)N2C[C@H](F)C[C@H]2C(=O)Nc2cncc(Br)n2)c2ccc(-c3cnc(C(C)C)nc3)cc12 [Compound 389, (2S,4R)-1-(2-(3-Acetyl-5-(2-isopropylpyrimidin-5-yl)-1H-indazol-1-yl)acetyl)-N-(6-bromopyrazin-2-yl)-4-fluoropyrrolidine-2-carboxamide]",,,< 1000
"COc1ncc(-c2ccc3c(c2)c(C(C)=O)nn3CC(=O)N2C[C@H](F)C[C@H]2C(=O)Nc2ccc(F)c(Br)n2)cn1 [Compound 450, (2S,4R)-1-(2-(3-Acetyl-5-(2-methoxypyrimidin-5-yl)-1H-indazol-1-yl)acetyl)-N-(6-bromo-5-fluoropyridin-2-yl)-4-fluoropyrrolidine-2-carboxamide]",,,< 1000
"CC(=O)c1nn(CC(=O)N2C[C@H]3C[C@H]3[C@H]2C(=O)Nc2nc(Br)ccc2C)c2c(C)cc(-c3cnc(C)nc3)cc12 [Compound 652, (1R,2S,5S)-3-(2-(3-Acetyl-7-methyl-5-(2-methylpyrimidin-5-yl)-1H-indazol-1-yl)acetyl)-N-(6-bromo-3-methylpyridin-2-yl)-3-azabicyclo[3.1.0]hexane-2-carboxamide]",,< 1000,
"CC(=O)c1nn(CC(=O)N2C[C@@](F)(CN(C)C)C[C@H]2C(=O)Nc2cccc(Br)n2)c2ccc(-c3cnc(C)nc3)cc12 [Compound 639, (2S,4S)-1-(2-(3-Acetyl-5-(2-methylpyrimidin-5-yl)-1H-indazol-1-yl)acetyl)-N-(6-bromopyridin-2-yl)-4-((dimethylamino)methyl)-4-fluoropyrrolidine-2-carboxamide]",,< 1000,
"CC(=O)N[C@H]1[C@@H](C(=O)Nc2cccc(Br)n2)N(C(=O)Cn2nc(C(C)=O)c3cc(-c4cnc(C)nc4)ccc32)C[C@@H]1F [Compound 512, (2S,3S,4S)-3-Acetamido-1-(2-(3-acetyl-5-(2-methylpyrimidin-5-yl)-1H-indazol-1-yl)acetyl)-N-(6-bromopyridin-2-yl)-4-fluoropyrrolidine-2-carboxamide]",,,< 1000
"NC(=O)c1nn(CC(=O)N2C[C@H](F)C[C@H]2C(=O)Nc2nc(-c3cccc(Cl)c3)ns2)c2ccc(-c3ccnnc3)cc12 [Compound 146, 1-(2-((2S,4R)-2-(3-(3-chlorophenyl)-1,2,4-thiadiazol-5-ylcarbamoyl)-4-fluoropyrrolidin-1-yl)-2-oxoethyl)-5-(pyridazin-4-yl)-1H-indazole-3-carboxamide]",> 10000,,
"CC(=O)c1nn(CC(=O)N2C[C@H]3C[C@H]3[C@H]2C(=O)Nc2ccn(CC(F)(F)F)n2)c2ccc(-c3cnc(C)nc3)cc12 [Compound 638, (1R,2S,5S)-3-(2-(3-Acetyl-5-(2-methylpyrimidin-5-yl)-1H-indazol-1-yl)acetyl)-N-(1-(2,2,2-trifluoroethyl)-1H-pyrazol-3-yl)-3-azabicyclo[3.1.0]hexane-2-carboxamide]",,< 1000,
"NC(=O)c1nn(CC(=O)N2C[C@H](F)C[C@H]2C(=O)Nc2cccc(Cl)c2C(F)(F)F)c2ccc(-c3ccnnc3)cc12 [Compound 93, 1-(2-((2S,4R)-2-(3-chloro-2-(trifluoromethyl)phenylcarbamoyl)-4-fluoropyrrolidin-1-yl)-2-oxoethyl)-5-(pyridazin-4-yl)-1H-indazole-3-carboxamide]",> 10000,,
"NC(=O)c1nn(CC(=O)N2C[C@H](F)C[C@H]2C(=O)Nc2ccc3ccccc3c2)c2ccc(-c3ccnnc3)cc12 [Compound 131, 1-(2-((2S,4R)-4-fluoro-2-(naphthalen-2-ylcarbamoyl)pyrrolidin-1-yl)-2-oxoethyl)-5-(pyridazin-4-yl)-1H-indazole-3-carboxamide]",> 10000,,
"CC(=O)c1nn(CC(=O)N2C[C@H](F)C[C@H]2C(=O)NCC(F)=C(C)C)c2ccc(-c3cnc(C)nc3)cc12 [Compound 474, (2S,4R)-1-(2-(3-acetyl-5-(2-methylpyrimidin-5-yl)-1H-indazol-1-yl)acetyl)-4-fluoro-N-(2-fluoro-3-methylbut-2-en-1-yl)pyrrolidine-2-carboxamide]",,,< 1000
"CC(=O)c1cn(CC(=O)N2C[C@H](F)C[C@H]2C(=O)NCCc2ccccc2)c2ccc(-c3cnc4cc(C)nn4c3)cc12 [Compound 686, (2S,4R)-1-(2-(3-Acetyl-5-(2-methylpyrazolo[1,5-a]pyrimidin-6-yl)-1H-indol-1-yl)acetyl)-4-fluoro-N-phenethylpyrrolidine-2-carboxamide]",,< 1000,
"CC(=O)c1cn(CC(=O)N2C[C@H](F)C[C@H]2C(=O)Nc2c[nH]nc2-c2ccc(Cl)cc2Cl)c2ccc(-c3ccnnc3)cc12 [Compound 156, (2S,4R)-1-(2-(3-acetyl-5-(pyridazin-4-yl)-1H-indol-1-yl)acetyl)-N-(3-(2,4-dichlorophenyl)-1H-pyrazol-4-yl)-4-fluoropyrrolidine-2-carboxamide]",> 10000,,
"NC(=O)c1nn(CC(=O)N2C[C@H](F)C[C@H]2C(=O)Nc2cccc(-c3ccccc3Cl)c2F)c2ccc(-c3ccc(F)nc3)cc12 [Compound 12, 1-(2-((2S,4R)-2-((2′-Chloro-2-fluoro-[1,1′-biphenyl]-3-yl)carbamoyl)-4-fluoropyrrolidin-1-yl)-2-oxoethyl)-5-(6-fluoropyridin-3-yl)-1H-indazole-3-carboxamide]",< 1000,,
"CC(=O)c1cn(CC(=O)N2C[C@H](F)C[C@H]2C(=O)Nc2cccc(-c3ccccc3Cl)c2F)c2ccc(-c3ccc(C)nc3)cc12 [Compound 151, (2S,4R)-1-(2-(3-acetyl-5-(6-methylpyridin-3-yl)-1H-indol-1-yl)acetyl)-N-(2′-chloro-2-fluorobiphenyl-3-yl)-4-fluoropyrrolidine-2-carboxamide]",< 1000,,
"NC(=O)c1nn(CC(=O)N2C[C@H](F)C[C@H]2C(=O)Nc2cccc(Br)n2)cc1-c1cnn(-c2ncc(F)cn2)c1 [Compound 729, 1-(2-((2S,4R)-2-((6-Bromopyridin-2-yl)carbamoyl)-4-fluoropyrrolidin-1-yl)-2-oxoethyl)-1′-(5-fluoropyrimidin-2-yl)-1H,1′H-[4,4′-bipyrazole]-3-carboxamide]",,> 10000,
"CCOC(=O)Cc1ncc(-c2ccc3c(c2)c(C(C)=O)nn3CC(=O)N2C[C@H](F)C[C@H]2C(=O)Nc2ccc(F)c(Br)n2)cn1 [Compound 539, ethyl 2-(5-(3-Acetyl-1-(2-((2S,4R)-2-((6-bromo-5-fluoropyridin-2-yl)carbamoyl)-4-fluoropyrrolidin-1-yl)-2-oxoethyl)-1H-indazol-5-yl)pyrimidin-2-yl)acetate]",,,< 1000
"CC(=O)c1nn(CC(=O)N2C[C@H](F)C[C@H]2C(=O)Nc2cncc(Br)n2)c2ccc(-c3cnc(CO)nc3)cc12 [Compound 398, (2S,4R)-1-(2-(3-Acetyl-5-(2-(hydroxymethyl)pyrimidin-5-yl)-1H-indazol-1-yl)acetyl)-N-(6-bromopyrazin-2-yl)-4-fluoropyrrolidine-2-carboxamide]",,,< 1000
"CC(=O)c1cn(CC(=O)N2C[C@H](F)C[C@H]2C(=O)Nc2cncc(Cl)c2)c2ccc(-c3ccnnc3)cc12 [Compound 66, (2S,4R)-1-(2-(3-acetyl-5-(pyridazin-4-yl)-1H-indol-1-yl)acetyl)-N-(5-chloropyridin-3-yl)-4-fluoropyrrolidine-2-carboxamide]",< 1000,,
"CC(=O)c1nn(CC(=O)N2[C@@H]3C[C@@H]3C[C@H]2C(=O)NC/C(F)=C(\C)c2cccc(Cl)c2)c2ccc(-c3cnc(C)nc3)cc12 [Compound 516, (1R,3S,5R)-2-(2-(3-Acetyl-5-(2-methylpyrimidin-5-yl)-1H-indazol-1-yl)acetyl)-N—((Z)-3-(3-chlorophenyl)-2-fluorobut-2-en-1-yl)-2-azabicyclo[3.1.0]hexane-3-carboxamide]",,,< 1000
"CC(=O)c1nn(CC(=O)N2C[C@H](C)C[C@H]2C(=O)Nc2nc(Br)ccc2C)c2ccc(-c3cnc(C)nc3)cc12 [Compound 644, (2S,4R)-1-(2-(3-Acetyl-5-(2-methylpyrimidin-5-yl)-1H-indazol-1-yl)acetyl)-N-(6-bromo-3-methylpyridin-2-yl)-4-methylpyrrolidine-2-carboxamide]",,< 1000,
